Laboratory results: patent US8207167B2, “Aryl-phenyl-sulfonamide-phenylene compounds and their use” (PIMCO 2664 Limited, priority 2008, dated 2012)
In brackets after ≈: the same amount, converted by molar mass.

Assays:
J774 macrophages = assay: Alamar Blue macrophage J774 viability assay; type: cell-based; conditions: Mus musculus, 72 hours culture with compound, Alamar Blue read-out
Procedure: (§1) Initial screening of candidate compounds was performed using in vitro assays to determine potency, metabolic stability and solubility in biologically relevant fluids. Potency was assessed using a viability assay based on the survival of the J774 macrophage cell line. Macrophages are closely related to osteoclasts and have been used previously as a model system for osteoclast survival (see, e.g., Luckman et al., 1998). Like osteoclasts, J774 macrophages are dependent on continued NFκB activation for survival, thereby providing a valuable screen for compounds with anti-inflammatory activity. Metabolic stability was measured by determining the rate of disappearance of compound in the presence of human liver microsomal preparations, as quantified by LC-MS/MS. Solubility was measured by equilibration of the compound in fasted state simulated intestinal fluid (FaSSIF) and quantified by HPLC.
In vitro potency as anti-inflammatory agents was determined for a number of APSAP compounds by incubation with J774 macrophages and subsequent determination of cell viability.
J774 cells were plated at 10^4 cells per well in 100 μL αMEM (α Modified Eagle Medium) in 96-well plates and grown overnight. The next day, test compounds were added to the cultures, and cultures were continued for another 72 hours. At the end of the culture period, cell survival was determined using an Alamar Blue assay as previously described (see, e.g., Nociari et al., 1998).
Alamar Blue is an oxidation-reduction sensitive indicator. The dye itself is in the oxidised state, which is blue and non-fluorescent. The dye can accept electrons from reducing species, such as NADPH and FADH, to form a reduced dye species, which is red and fluorescent. Thus the transformation from oxidised form to reduced form can be measured by fluorimetric or colourimetric means. For fluorescence measurements, 530-560 nm excitation and 590 nm emission wavelengths are typically used. For colourimetric measurements, absorbance at 570 nm (reduced form) and 600 nm (oxidised form) is typically measured. A simple calculation is performed to determine the relative quantities of the two species.
A high ratio of the reducing species, NADPH and FADH, to the corresponding oxidised species, NADP and FAD, is an indicator that cells are proliferating and viable. A low ratio indicates cells that are quiescent or non-viable.
Briefly, Alamar Blue (Biosource International) was added undiluted to each well (1:10 v/v, 10 μL). The plate was incubated at 37° C. for 3-4 hours and the fluorescence was measured at 590 nm, with a 25 nm bandwidth. A high reading indicated cells with normal viability, and a low reading indicated cells that have been damaged and are no longer proliferating normally. The controls gave a high fluorescence reading, indicating a high number of live, healthy cells. A potent test compound gave a low fluorescence reading.
The average results for each test compound (n=5) were expressed as a percent (%) of the average control value.
Addition of Compounds. All of the compounds studied were made up as 100 mM solutions in DMSO. These stock solutions were then diluted 1000-10000× in culture medium (αMEM). From these 100 μM or 10 μM solutions, convenient quantities (3-33 μL) were added directly to the wells so as to give the desired final compound concentration.

[1] = Human liver microsomal stability assay; type: in vitro ADME; conditions: pooled human liver microsomes 0.5 mg/mL, test compound 3 μM, 45 minute incubation, NADPH
Procedure: as §1
Metabolic stability of APSAP derivatives was measured by determination of the rate of compound disappearance when incubated in the presence of human liver microsomes. Liver microsomes are prepared from the endoplasmic reticulum of hepatocytes and are the primary source of the most important enzymes (cytochrome P450) involved in drug metabolism. Study of drug stability in the presence of liver microsomes is accepted as a valuable model permitting rapid prediction of in vivo drug stability.
Human liver microsomes were obtained from a commercial source. Test compounds (3 μM) were incubated with pooled liver microsomes (male and female). Samples were incubated for a 45 minute period and removed at 5 time points and test compounds were analysed by LC-MS/MS.
The final incubation volume was 25 μL. A control incubation was included for each compound tested, where 0.1 M phosphate buffer pH 7.4 was added instead of NADPH. The control compounds testosterone and 7-hydroxycoumarin were included in each experiment and all incubations were performed singularly for each compound.
Each compound was incubated for 0, 5, 15, 30, and 45 minutes. The control (minus NADPH) was incubated for 45 minutes only. The reactions were stopped by the addition of 50 μL methanol containing internal standard at the appropriate time points. The incubation plates were centrifuged at 2500 rpm for 20 minutes at 4° C. to precipitate the protein.
Following protein precipitation, the sample supernatants were combined in cassettes of up to 4 compounds and analysed using standard LC-MS/MS conditions.
From a plot of the natural logarithm of the peak area ratio (i.e., the ratio of compound peak area:internal standard peak area) against time, the gradient of the line was determined. Subsequently, half-life and intrinsic clearance were calculated using the equations below: Eliminated rate constant(k)=(−gradient). […] Intrinsic Clearance(CLint)([…])=(V×0.693)/t1/2. wherein V=Incubation volume(μL/mg microsomal protein). Pharmacokinetics Studies

[2] = Thermodynamic aqueous solubility in fasted state simulated intestinal fluid (FaSSIF); type: physicochemical; conditions: fasted state simulated intestinal fluid (FaSSIF), pH 6.5, thermodynamic from solid, 25° C., 24 hours equilibration, HPLC
Procedure: as §1
Thermodynamic aqueous solubility was measured by equilibration of a number of APSAP compounds, in the solid state, with fasted state simulated intestinal fluid (FaSSIF) and quantified by HPLC. Measurement of solubility in FaSSIF provides a valuable model for the prediction of drug dissolution following oral administration.
Preparation of blank FaSSIF: NaOH pellets (174 mg), NaH2PO4.2H2O (2.235 g), and NaCl (3.093 g) were dissolved in 500 mL of water. The pH was adjusted to 6.5 using 1 M NaOH solution.
Preparation of FaSSIF: Sodium taurocholate (165 mg) was dissolved in 25 mL blank FaSSIF. 0.6 mL of a solution containing 100 mg/mL lecithin in methylene chloride was added. The methylene chloride was eliminated under vacuum at about 40° C. The vacuum was drawn for 15 minutes at 250 mbar, followed by 15 minutes at 100 mbar. […] After cooling to room temperature, the solution was then adjusted to 100 mL with blank FaSSIF.
The suspension was equilibrated at 25° C. for 24 hours, and then the pH was measured. The suspension was then filtered through a glass fibre C filter into a 96-well plate. The filtrate was then diluted by a factor of 100. Quantification was made by HPLC with reference to a standard solution of compound at approximately 0.1 mg/mL in DMSO. Different volumes of the standard, diluted and undiluted sample solutions were injected. The solubility was calculated using the peak areas determined by integration of the peak found at the same retention time as the principal peak in the standard injection. Analysis was performed on an Agilent HP1100 series system equipped with a diode array detector and using ChemStation software vB.02.01-SR1.

T1/2 [1]: Stable
solubility at 24 h [2]: 520 µg/mL (≈ 1240 µM)
Compound: CNC(CO)c1cccc(NS(=O)(=O)c2ccc(-c3ccc(F)cc3F)cc2)c1 (stereo not drawn) [ABD789, 2′,4′-Difluoro-N-(3-(2-hydroxy-1-(methylamino)ethyl)phenyl)biphenyl-4-sulfonamide]
IC50 (J774 macrophages): 140 nM
